# Target: hCFTR (human CFTR) (Homo sapiens, UniProt P13569)
# Assay: inside-out oocyte macropatch current
# Format: biochemical
# Conditions: 1 mM ATP and PKA 127.6 U/mL; potentiator
# Sequence of hCFTR (human CFTR) (P13569 whole entry): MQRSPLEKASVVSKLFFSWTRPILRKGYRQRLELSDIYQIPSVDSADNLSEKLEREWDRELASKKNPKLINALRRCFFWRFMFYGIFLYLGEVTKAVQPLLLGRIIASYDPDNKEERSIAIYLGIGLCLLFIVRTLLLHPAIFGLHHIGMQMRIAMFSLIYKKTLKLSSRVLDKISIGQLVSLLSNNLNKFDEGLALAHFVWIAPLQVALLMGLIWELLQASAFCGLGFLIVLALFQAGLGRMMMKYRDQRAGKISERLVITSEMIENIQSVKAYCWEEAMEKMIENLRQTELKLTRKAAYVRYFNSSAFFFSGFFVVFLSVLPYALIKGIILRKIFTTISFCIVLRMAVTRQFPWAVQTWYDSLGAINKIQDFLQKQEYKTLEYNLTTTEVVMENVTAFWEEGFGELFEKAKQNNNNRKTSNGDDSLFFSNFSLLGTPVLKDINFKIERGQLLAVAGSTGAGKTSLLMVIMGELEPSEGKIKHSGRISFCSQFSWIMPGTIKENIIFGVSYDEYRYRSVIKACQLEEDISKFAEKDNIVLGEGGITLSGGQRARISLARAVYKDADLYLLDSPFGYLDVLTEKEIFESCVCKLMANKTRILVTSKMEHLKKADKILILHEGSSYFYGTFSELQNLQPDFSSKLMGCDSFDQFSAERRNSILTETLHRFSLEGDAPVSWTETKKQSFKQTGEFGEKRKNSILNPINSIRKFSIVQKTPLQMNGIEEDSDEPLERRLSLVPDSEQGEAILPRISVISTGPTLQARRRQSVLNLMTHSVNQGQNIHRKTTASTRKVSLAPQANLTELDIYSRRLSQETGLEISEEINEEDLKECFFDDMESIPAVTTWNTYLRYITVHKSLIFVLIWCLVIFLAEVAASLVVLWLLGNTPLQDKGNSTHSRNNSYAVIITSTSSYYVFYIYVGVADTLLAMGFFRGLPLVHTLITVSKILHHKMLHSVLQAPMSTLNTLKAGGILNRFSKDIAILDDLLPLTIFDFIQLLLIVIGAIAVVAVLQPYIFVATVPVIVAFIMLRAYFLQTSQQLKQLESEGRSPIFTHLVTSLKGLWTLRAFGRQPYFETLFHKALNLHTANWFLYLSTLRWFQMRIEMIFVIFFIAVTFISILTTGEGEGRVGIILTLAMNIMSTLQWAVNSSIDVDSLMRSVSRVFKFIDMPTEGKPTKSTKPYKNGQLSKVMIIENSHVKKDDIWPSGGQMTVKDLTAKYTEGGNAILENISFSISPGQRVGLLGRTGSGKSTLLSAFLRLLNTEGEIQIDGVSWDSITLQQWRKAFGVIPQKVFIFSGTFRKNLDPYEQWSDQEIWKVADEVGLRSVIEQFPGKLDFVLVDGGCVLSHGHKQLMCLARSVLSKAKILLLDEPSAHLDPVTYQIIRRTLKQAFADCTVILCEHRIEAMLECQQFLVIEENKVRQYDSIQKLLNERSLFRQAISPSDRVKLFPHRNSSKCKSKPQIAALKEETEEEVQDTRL
smiles,measurement,value
CC(C)(C)c1cc(C(C)(C)C)c(NC(=O)c2c[nH]c3ccccc3c2=O)cc1O [VX-770],fractional potentiation at 0.2 μM,"although hCFTR is potentiated, Lp-CFTR shows no enhancement of function"
